Experimental data reported in US20250281621A1, “GPC3 APTAMERS AND VARIANTS AND USE THEREOF” (Guardian Therapeutics, LLC, priority 2020, published 2025).

Tested on: NCI-H446 xenograft
Details: 40 mg/kg, I.P. QD for 28 days

- % of body weight loss (Day 29): −5.29%
SMILES: CCc1c2c(nc3ccc(OC(=O)N4CCC(N5CCCCC5)CC4)cc13)-c1cc3c(c(=O)n1C2)COC(=O)[C@]3(O)CC [Irinotecan, irinotecan]
